The text below walks through data of patent EP0233461B2, “4,5,6-Substituted-2-pyrimidinamines” (AMERICAN CYANAMID COMPANY, priority 1986, dated 1987).

pIC50: −log10 of the molar value. Where a name gives a salt, the structure may show the parent alone. Read-outs that look alike come from different tables or passages of the source.

This assay concerns human basophils. Briefly: Inhibition of histamine release from immunologically stimulated human basophils. In kind it is cell-based. Conditions: concentration causing 50% inhibition of histamine release, by linear regression, active if IC50 ≦ 48 µM. The method in brief: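 Leukocytes from sedimented human blood, washed in Tris-A and resuspended in Tris-ACM, were challenged with anti-IgE or antigen, with or without compound, for 60 min at 37 °C. Released histamine was measured fluorometrically after OPT derivatization and expressed as percent of total (perchloric acid lysate), corrected for spontaneous release.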

Usually pIC50 stands for the negative decadic logarithm of the IC50, by convention in mol/L. For the compound `CCc1ccc(Nc2ncc(C)c(-c3ccncc3)n2)cc1` [N-(4-Ethylphenyl)-5-methyl-4-(4-pyridinyl)-2-pyrimidinamine], the pIC50 (Homo sapiens, read-out: IC50) was over 4.32.

For `COC(=O)c1ccc(Nc2nccc(-c3ccncc3)n2)cc1` [4-[[4-(4-Pyridinyl)-2-pyrimidinyl]amino]benzoic acid, methyl ester], for the setting “Homo sapiens, read-out: IC50”, the pIC50 is 4.56.

In the case of `COc1ccc(Nc2nccc(-c3cc[n+](C)cc3)n2)cc1` [4-[2-[(4-Methoxyphenyl)amino]-4-pyrimidinyl]-1-methylpyridinium, iodide], the pIC50 (Homo sapiens, read-out: IC50) was 4.48.

`Cc1cc(-c2ccnc(Nc3ccc(N(C)C)cc3)n2)c(C)o1` [N'-[4-(2,5-Dimethyl-3-furanyl)-2-pyrimidinyl]-N,N-dimethyl-1,4-benzenediamine]: the pIC50 (Homo sapiens, read-out: IC50) is 5.31.

On to `c1coc(-c2ccnc(Nc3ccc(-n4ccnc4)cc3)n2)c1` [4-(2-Furanyl)-N-[4-(1H-imidazol-1-yl)phenyl]-2-pyrimidinamine], for which the pIC50 (Homo sapiens, read-out: IC50) is 5.66.

For `Cc1ccc(CNc2nccc(-c3ccccn3)n2)cc1C` [N-[(3,4-Dimethylphenyl)methyl]-4-(2-pyridinyl)-2-pyrimidinamine], the negative logarithm of the IC50 (pIC50) (Homo sapiens, read-out: IC50) was 4.40.

`Cc1cccc(Nc2nccc(-c3ccncc3)n2)c1C` [N-(2,3-Dimethylphenyl)-4-(4-pyridinyl)-2-pyrimidinamine]: under “Homo sapiens, read-out: IC50”, the pIC50 is 4.69.

Turning to `CC(=O)N(C)c1ccc(Nc2nccc(-c3cccnc3)n2)cc1` [N-Methyl-N-[4-[[4-(3-pyridinyl)-2-pyrimidinyl]amino]phenyl]acetamide], the pIC50 (Homo sapiens, read-out: IC50) was 5.96.

Regarding `CCc1ccc(Nc2nc(C)cc(-c3ccc(C)nc3)n2)cc1` [N-(4-Ethylphenyl)-6-methyl-4-(6-methyl-3-pyridinyl)-2-pyrimidinamine], under “Homo sapiens, read-out: IC50”, the pIC50 is 4.72.

Turning to `CC(=O)Nc1ccc(Nc2nccc(-c3ccc(C)s3)n2)cc1` [N-[4-[[4-(5-Methyl-2-thienyl)-2-pyrimidinyl]amino]phenyl]acetamide], for the setting “Homo sapiens, read-out: IC50”, the pIC50 was 6.52.

On to `Cc1cc(C)cc(Nc2nccc(-c3cccnc3)n2)c1` [N-(3,5-Dimethylphenyl)-4-(3-pyridinyl)-2-pyrimidinamine], for which, for the setting “read-out: IC50”, the negative logarithm of the IC50 (pIC50) was 6.10.

For the compound `c1cc(Nc2nccc(-c3ccco3)n2)cc(-n2ccnc2)c1` [4-(2-Furanyl)-N-[3-(1H-imidazol-1-yl)phenyl]-2-pyrimidinamine], the negative-log IC50 (pIC50) (Homo sapiens, read-out: IC50) was 6.10.

`c1ccc(Nc2nccc(-c3cccnc3)n2)cc1` [N-Phenyl-4-(3-pyridinyl)-2-pyrimidinamine, sulfate]: under “Homo sapiens”, the pIC50 is 5.52.

For the compound `CCc1cccc(Nc2nccc(-c3cccs3)n2)c1` [N-(3-Ethylphenyl)-4-(2-thienyl)-2-pyrimidinamine], the pIC50 (Homo sapiens, read-out: IC50) is 4.32.

On to `CN(C)c1ccc(Nc2nccc(-c3cc4ccccc4o3)n2)cc1` [N'-[4-(2-Benzofuranyl)-2-pyrimidinyl]-N,N-dimethyl-1,4-benzenediamine], for which the negative-log IC50 (pIC50) (Homo sapiens, read-out: IC50) was 5.25.

For `Cc1ccc(Nc2nccc(-c3ccncc3)n2)c(C)c1` [N-(2,4-Dimethylphenyl)-4-(4-pyridinyl)-2-pyrimidinamine], the pIC50 (Homo sapiens, read-out: IC50) was 4.62.

As to `CCc1ccc(Nc2nccc(-c3ccncc3)n2)cc1` [N-(4-Ethylphenyl)-4-(4-pyridinyl)-2-pyrimidinamine], for the setting “Homo sapiens, read-out: IC50”, the pIC50 is 5.11.

On to `COc1cccc(Nc2nccc(-c3ccccn3)n2)c1` [N-(3-Methoxyphenyl)-4-(2-pyridinyl)-2-pyrimidinamine], for which the pIC50 (Homo sapiens, read-out: IC50) is 6.70.

`c1ccc(Nc2nccc(-c3ccncc3)n2)cc1` [N-Phenyl-4-(4-pyridinyl)-2-pyrimidinamine, dihydrochloride]: the pIC50 (dihydrochloride, read-out: IC50) was 5.52.

As to `CC(NC=O)c1ccc(Nc2nccc(-c3cccnc3)n2)cc1` (stereo not drawn) [N-[1-[4-[[4-(3-Pyridinyl)-2-pyrimidinyl]amino]phenyl]ethyl]formamide], the pIC50 (Homo sapiens, read-out: IC50) is 6.40.

`c1ccc(Nc2nccc(-c3ccncc3)n2)cc1` [N-Phenyl-4-(4-pyridinyl)-2-pyrimidinamine]: the pIC50 (read-out: IC50) was 6.05.

Take `Cc1cc(C)cc(Nc2nccc(-c3ccco3)n2)c1` [N-(3,5-Dimethylphenyl)-4-(2-furanyl)-2-pyrimidinamine]: the negative-log IC50 (pIC50) (Homo sapiens, read-out: IC50) was 6.15.

`Cc1cnc(Nc2cccc(N(C)C)c2)nc1-c1ccco1` [N,N-Dimethyl-N'-[4-(2-furanyl)-5-methyl-2-pyrimidinyl]-1,3-benzene-diamine]: the pIC50 (Homo sapiens, read-out: IC50) is 4.40.

For `FC(F)(F)c1cccc(Nc2nccc(-c3ccco3)n2)c1` [4-(2-Furanyl)-N-[3-(trifluoromethyl)phenyl]-2-pyrimidinamine], the pIC50 (Homo sapiens, read-out: IC50) was over 4.32.

As to `CN(C)c1cccc(Nc2nccc(-c3ccccn3)n2)c1` [N,N-Dimethyl-N'-[4-(2-pyridinyl)-2-pyriziiidin-yl]-1,3-benzenediamine, trihydrochloride], the pIC50 (trihydrochloride, read-out: IC50) was 6.00.

Regarding `Nc1cccc(Nc2nccc(-c3ccccn3)n2)c1` [N-[4-(2-Pyridinyl)-2-pyrimidinyl]-1,3-benzenediamine], the pIC50 (Homo sapiens, read-out: IC50) was 6.70.

For `CC(=O)Nc1cccc(Nc2nccc(-c3ccccn3)n2)c1` [N-[3-[[4-(2-Pyridinyl)-2-pyrimidinyl]amino]-phenyl]acetamide], the pIC50 (Homo sapiens, read-out: IC50) is 6.52.

In the case of `CC(=O)Nc1ccc(Nc2nccc(-c3ccncc3)n2)cc1` [N-[4-[[4-(4-Pyridinyl)-2-pyrimidinyl]amino]-phenyl]acetamide], where the note is “Homo sapiens, read-out: IC50”, the pIC50 was 5.28.

Consider `Cc1cc(C)cc(Nc2nccc(-c3cccnc3)n2)c1` [N-(3,5-Dimethylphenyl)-4-(3-pyridinyl)-2-pyrimidinamine, phosphate], for which the pIC50 (phosphate, read-out: IC50) was 5.52.

For `FC(F)(F)c1cc(Nc2nccc(-c3ccccn3)n2)ccc1-n1ccnc1` [N-[4-(1H-Imidazol-1-yl)-3-(tri-fluoromethyl)phenyl]-4-(2-pyridin-yl)-2-pyrimidinamine], the pIC50 (Homo sapiens, read-out: IC50) was 5.80.

As to `FC(F)(F)c1cccc(Nc2nccc(-c3cccnc3)n2)c1` [4-(3-Pyridinyl)-N-[3-(trifluoromethyl)phenyl]-2-pyrimidinamine, sulfate], the pIC50 (sulfate) is 5.59.

Turning to `COc1cccc(Nc2nccc(-c3ccncc3)n2)c1` [N-(3-Methoxyphenyl)-4-(4-pyridinyl)-2-pyrimidinamine], the pIC50 (Homo sapiens, read-out: IC50) was 6.40.

On to `Cc1ccc(C)c(Nc2nccc(-c3ccncc3)n2)c1` [N-(2,5-Dimethylphenyl)-4-(4-pyridinyl)-2-pyrimidinamine], for which the negative-log IC50 (pIC50) (Homo sapiens, read-out: IC50) was 4.33.

`Cc1cccc(Nc2nccc(-c3cc4ccccc4[nH]3)n2)c1` [4-(1H-Indol-2-yl)-N-(3-methylphenyl)-2-pyrimidinamine]: the negative logarithm of the IC50 (pIC50) (Homo sapiens, read-out: IC50) is 5.66.

In the case of `CN(C)c1ccccc1Nc1nccc(-c2ccncc2)n1` [N,N-Dimethyl-N'-[4-(4-pyridinyl)-2-pyrimidinyl]-1,2-benzenediamine, fumarate], under “Homo sapiens, read-out: IC50”, the pIC50 is 4.44.

As for `c1ccc(-c2ccnc(NC3CCCC3)n2)nc1` [N-Cyclopentyl-4-(2-pyridinyl)-2-pyrimidinamine], the pIC50 (Homo sapiens, read-out: IC50) was 5.66.

For `NS(=O)(=O)c1cccc(Nc2nccc(-c3ccncc3)n2)c1` [3-[[4-(4-Pyridinyl)-2-pyrimidinyl]-amino]benzenesulfonamide], for the setting “Homo sapiens, read-out: IC50”, the negative logarithm of the IC50 (pIC50) is 6.30.

As to `CC(=O)Nc1ccc(Nc2nccc(-c3ccco3)n2)cc1` [N-[4-[[4-(2-Furanyl)-2-pyrimidin-yl]amino]phenyl]acetamide], the pIC50 (Homo sapiens, read-out: IC50) was 6.15.

Regarding `Cc1ccc(Nc2nccc(-c3ccccn3)n2)cc1C` [N-(3,4-Dimethylphenyl)-4-(2-pyridinyl)-2-pyrimidinamine], the negative logarithm of the IC50 (pIC50) (Homo sapiens, read-out: IC50) was 5.23.

Regarding `Oc1ccccc1Nc1nccc(-c2cccnc2)n1` [2-[[4-(3-Pyridinyl)-2-pyrimidinyl]amino]phenol], for the setting “Homo sapiens, read-out: IC50”, the pIC50 is 4.63.

With `CCN(CC)c1ccc(Nc2nccc(-c3ccncc3)n2)cc1` [N,N-Diethyl-N'-[4-(4-pyridinyl)-2-pyrimidinyl]-1,4-benzenediamine], the pIC50 (Homo sapiens, read-out: IC50) is 5.96.

In the case of `CC(=O)Nc1ccc(Nc2nccc(-c3cccnc3)n2)cc1C`, the pIC50 (Homo sapiens, read-out: IC50) is 5.74.

`NS(=O)(=O)c1ccc(Nc2nccc(-c3ccccn3)n2)cc1` [4-[[4-(2-Pyridinyl)-2-pyrimidinyl]amino]-benzenesulfonamide]: the pIC50 (Homo sapiens, read-out: IC50) was 5.35.

With `c1ccc(Nc2nccc(-c3cccs3)n2)cc1` [N-Phenyl-4-(2-thienyl)-2-pyrimidinamine], the pIC50 (Homo sapiens, read-out: IC50) is 4.50.

For `Fc1cccc(Nc2nccc(-c3ccccn3)n2)c1` [N-(3-Fluorophenyl)-4-(2-pyridinyl)-2-pyrimidinamine], the negative-log IC50 (pIC50) (Homo sapiens, read-out: IC50) is 6.05.

As for `FC(F)(F)c1cc(Nc2nccc(-c3ccncc3)n2)ccc1-n1ccnc1` [N-[4-(1H-Imidazol-1-yl)-3-(trifluoromethyl)-phenyl]-4-(4-pyridinyl)-2-pyrimidinamine], the pIC50 (Homo sapiens, read-out: IC50) was 6.40.

As to `NS(=O)(=O)c1cccc(Nc2nccc(-c3ccccn3)n2)c1` [3-[[4-(2-Pyridinyl)-2-pyrimidinyl]amino]benzenesulfonamide], the negative logarithm of the IC50 (pIC50) (Homo sapiens, read-out: IC50) is 6.15.

For `CC(=O)c1ccc(Nc2nccc(-c3cccnc3)n2)cc1` [N-(4-Acetylphenyl)-4-(3-pyridinyl)-2-pyrimidinamine], the negative logarithm of the IC50 (pIC50) (Homo sapiens, read-out: IC50) is 6.10.

As to `FC(F)(F)c1cccc(Nc2nccc(-c3ccncc3)n2)c1` [4-(4-Pyridinyl)-N-[3-(trifluoromethyl)phenyl]-2-pyrimidinamine, sulfate], the pIC50 (sulfate) is over 4.32.

Consider `Cc1cccc(Nc2nccc(-c3cc(C)oc3C)n2)c1` [4-(2,5-Dimethyl-3-furanyl)-N-(3-methylphenyl)-2-pyrimidinamine], for which the pIC50 (Homo sapiens, read-out: IC50) was 4.55.

Take `Cc1cccc(Nc2nccc(-c3cccn3C)n2)c1` [N-(3-Methylphenyl)-4-(1-methyl-1H-pyrrol-2-yl)-2-pyrimidinamine]: under “Homo sapiens, read-out: IC50”, the pIC50 is 5.03.
